Measurements: US11198898B2, “Chemical tools for imaging phospholipase D activity” (CORNELL UNIVERSITY, priority 2017, dated 2021)
Like-named read-outs stand apart in the source and are kept apart here.

Tests used:
[1] = tested on: commercially available PLD; test: In vitro transphosphatidylation of DOPC with alkynols by a commercially available PLD, CuAAC with Az488, HPLC-fluorescence/ESI-MS; assay type: biochemical; conditions: incubated with DOPC and PLD
[2] = tested on: endogenous PLD activity in HeLa cells; test: Azidoalcohol labelling of PMA-stimulated HeLa cells, lipid extraction, SPAAC with BODIPY-cyclooctyne 1, HPLC; assay type: cell-based, human; conditions: for decrease of the signal: isoform-selective inhibitor during labeling
[3] = tested on: PLD activity in live cells; assay type: cell-based
[4] = tested on: PLD activity in HeLa cells; test: Imaging of PLD-mediated PA synthesis in fixed HeLa cells with alkynols, CuAAC with Az488, confocal microscopy; assay type: cell-based, human
Description: To image sites of PLD-mediated PA synthesis, HeLa cells were treated with each of the three longer-chain alkynols and again stimulated PLD activity acutely with PMA, in the absence or presence of FIPI. Rather than proceeding with a whole-cell lipid extraction, cells were fixed with paraformaldehyde and subjected to CuAAC labeling with Az488. […] The observed labeling pattern was complex, likely the result of PA synthesis on membranes of multiple intracellular compartments. To determine the subcellular locations of the hexynol-based labeling, a series of colocalization studies were performed with markers of various organelle membranes. In these studies, HeLa cells were transfected with plasmids encoding fluorescent protein fusions to constituents of several organellar membranes and then the PA labeling protocol was performed using 1 mM hexynol and, where appropriate, either Az488 or an azide-containing tetramethylrhodamine derivative.

[5] = tested on: basal, endogenous PLD activity in HeLa cells; test: Basal PLD activity: HeLa cells with 1 mM AzProp, lipid extraction, SPAAC with (1), HPLC; assay type: cell-based, human
Description: Up to this point, the efforts focused on monitoring acute PLD activation in response to a stimulus, by using PMA as a model pharmacological agent to mimic activation of several signal transduction pathways. In the absence of a stimulus, however, it is known that PLD enzymes display a much lower but appreciable level of basal activity.
To accomplish this, HeLa cells were treated with 1 mM AzProp, followed by lipid extraction, SPAAC labeling with (1), and HPLC analysis.

[6] = tested on: basal PLD activity in HeLa cells; test: Basal PLD activity in live cells: AzProp/SPAAC labelling, confocal microscopy with isoform-selective inhibitors; assay type: cell-based, human; conditions: for effect of inhibitor on ER- and Golgi-derived fluorescence: HeLa cells; for effect of inhibitor on the high-fluorescence cell population: confocal microscopy
Description: To image sites of basal PLD activity within live cells, cells were treated with 1 mM AzProp for 2 hours and rinsed. The SPAAC reaction was then performed using (1).
Further experiments then examined the distribution of basal PLD activity at both the cellular and subcellular levels. […] Thus, at the cellular level, the high fluorescence of a minority of cells can be attributed to PLD1 activity, and the moderate fluorescence in the majority of cells to PLD2.
The subcellular localization of AzProp-marked basal PLD activity appeared to be similar to that of AzProp-marked, PMA-stimulated PLD enzymes, that is localized to a mixture of ER, Golgi, endosomal, and lysosomal membranes. Isoform-selective inhibitors were used to probe the relative contributions of each PLD isoform to PA biosynthetic activity on different organelle membranes. […] Thus, it can be concluded that, in HeLa cells, the bulk of ER-localized, basal PLD activity is due to PLD1, whereas PLD activity on Golgi membranes is due to a roughly equal mix of PLD1 and PLD2.

[7] = tested on: mammalian PLDs in HeLa cells; test: Alkynol labelling of PMA-stimulated HeLa cells, lipid extraction, CuAAC with Az488, HPLC-fluorescence; assay type: cell-based, human; conditions: for extent of incorporation into phosphatidyl alcohols compared to the shorter alkynols: at the same concentration
Description: Further experiments evaluated whether mammalian PLDs would accept alkynols as substrates within live cells. HeLa cells were treated with each of the five alkynols for 20 minutes, stimulated acute PA biosynthesis pharmacologically using phorbol 12-myristate 13-acetate (PMA) (McDermott M, et al., Biochem. Cell Biol. 2004 February; 82(1):225-53), and then isolated total cellular lipid extracts. Following CuAAC labeling with Az488, the samples were analyzed by HPLC coupled to fluorescence detection. The HPLC-fluorescence results for the five alkynols (denoted as 1, 2, 3, 4, or 5 in panels 1-5, respectively) are shown in FIG. 2B.
While all five alkynols were accepted as transphosphatidylation substrates in HeLa cells, they were processed by cellular PLDs with different efficiencies. […] The molecular identities of the fluorescently labeled phosphatidyl alcohols (PA analogs) were verified by analyzing labeled extracts from cells treated with each of the three longer-chain alkynols by HPLC followed by ESI-MS.
This robust labeling with pentynol, hexynol, and heptynol led to further experiments to investigate whether the dose of alkynol could be lowered. The initial concentration of 12.9 mM alkynol corresponded to the low end of the concentration range of 0.1-0.5 mol % that is typically used in the traditional TLC-based butanol transphosphatidylation assay. Such high concentrations of alcohol, however, have several negative consequences. First, they are sufficient to compete with water in the PLD active site and reduce the ability of PLDs to synthesize PA, thus impacting PA-dependent signaling.

[8] = HeLa cells, PMA, SPAAC with BODIPY-cyclooctyne 1
[9] = PMA-stimulated HeLa cells, HPLC

Structure (SMILES): C#CCCO [3-butyn-1-ol]
- formation of the expected fluorescent phosphatidyl alcohol product (PLD substrate in vitro) [1]: confirmed the identity of the expected fluorescent phosphatidyl alcohol products

Structure (SMILES): [N-]=[N+]=NCCCCO [AzBut, 4-azido-1-butanol]
- fluorescent lipid species by HPLC [2, 8]: presence of fluorescent lipid species
- efficacy as PLD substrate [2, 9]: performed roughly equivalently

Structure (SMILES): [N-]=[N+]=NCCO [AzEt, 2-azidoethanol]
- efficacy as PLD substrate [2]: poorer PLD substrate
- fluorescent lipid species by HPLC [2]: presence of fluorescent lipid species
- signal-to-background among the azidoalcohols [3]: highest

Structure (SMILES): [N-]=[N+]=NCCCCCO [AzPent, 5-azido-1-pentanol]
- fluorescent lipid species by HPLC [2, 8]: presence of fluorescent lipid species
- efficacy as PLD substrate [2, 9]: performed roughly equivalently

Structure (SMILES): O=C(NCCN1CCC(n2c(=O)[nH]c3ccccc32)CC1)c1cc2cc(F)ccc2[nH]1 [FIPI, 5-fluoro-2-indolyl deschlorohalopemide, reference compound]
- labeling in cells treated with alkynol and PLD inhibitor (negative control) ([4]; PMA, CuAAC with Az488): minimal background labeling
- effect of inhibitor on fluorescent lipid species ([2]; treatment of cells during the labeling procedure, PMA-stimulated): complete loss of the fluorescent lipid species
- effect of inhibitor on basal phosphatidyl alcohol production ([5]; unstimulated HeLa cells): prevented phosphatidyl alcohol production

Structure (SMILES): C[C@@H](CN1CCC(n2c(=O)[nH]c3cc(Br)ccc32)CC1)NC(=O)[C@@H]1C[C@H]1c1ccccc1 [VU0359595]
- decrease of the signal ([2]; PMA-stimulated HeLa cells): approximately 75%
- share of the unstimulated PLD activity attributed to the inhibited isoform [5]: roughly half
- effect of inhibitor on ER- and Golgi-derived fluorescence [6]: selective disappearance of most of the ER-derived fluorescence but only a portion of the Golgi-derived fluorescence
- effect of inhibitor on the high-fluorescence cell population [6]: disappearance of high-fluorescence cells

Structure (SMILES): O=C(NCCN1CCC2(CC1)C(=O)NCN2c1cccc(F)c1)c1ccc2ccccc2c1 [VU0364739]
- decrease of the signal ([2]; PMA-stimulated HeLa cells): ~25%
- share of the unstimulated PLD activity attributed to the inhibited isoform [5]: roughly half
- effect of inhibitor on ER- and Golgi-derived fluorescence [6]: decrease in Golgi-derived fluorescence but had minimal effect on ER-derived fluorescence
- effect of inhibitor on the high-fluorescence cell population [6]: did not eliminate the high-fluorescence population

Structure (SMILES): C#CCCCCCO [heptynol, 6-heptyn-1-ol]
- formation of the expected fluorescent phosphatidyl alcohol product (PLD substrate in vitro) [1]: confirmed the identity of the expected fluorescent phosphatidyl alcohol products
- extent of incorporation into phosphatidyl alcohols compared to the shorter alkynols [7]: incorporated to a greater extent into phosphatidyl alcohols

Structure (SMILES): C#CCCCCO [hexynol, 5-hexyn-1-ol]
- formation of the expected fluorescent phosphatidyl alcohol product (PLD substrate in vitro) [1]: confirmed the identity of the expected fluorescent phosphatidyl alcohol products
- alkynol concentration at which PA production could be detected in cells ([7]; HPLC): ≥ 100 µM
- extent of incorporation into phosphatidyl alcohols compared to the shorter alkynols [7]: incorporated to a greater extent into phosphatidyl alcohols
- alkynol concentration permitting detection of alkynol-dependent and FIPI-sensitive fluorescence ([4]; confocal microscopy): ≥ 100 µM
- signal-to-background ratio among the three longer-chain alkynols ([4]; confocal microscopy): highest signal-to-background ratio

Structure (SMILES): C#CCCCO [pentynol, 4-pentyn-1-ol]
- formation of the expected fluorescent phosphatidyl alcohol product (PLD substrate in vitro) [1]: confirmed the identity of the expected fluorescent phosphatidyl alcohol products
- extent of incorporation into phosphatidyl alcohols compared to the shorter alkynols [7]: incorporated to a greater extent into phosphatidyl alcohols

Structure (SMILES): C#CCO [propynol]
- formation of the expected fluorescent phosphatidyl alcohol product (PLD substrate in vitro) [1]: confirmed the identity of the expected fluorescent phosphatidyl alcohol products
